In patent publication US11672959B2, “Expandable member systems and methods for drug delivery” (Intersect ENT, Inc., priority 2019, dated 2023):

Columns and labels:
[1] = in vitro release rates for expandable members having varying amounts of crystalline mometasone furoate (FIG. 4); assay type: physicochemical
Source text: FIG. 4 is a graph comparing the in vitro release rates for expandable members having varying amounts of crystalline mometasone furoate. The amount of crystalline and amorphous drug provided in the drug layer will generally vary depending on the active agent employed, target tissue being treated, therapeutic drug level desired in the target tissue, and/or the drug release profile desired. For example, the ratio of amorphous to crystalline drug in the drug layer can be about 1:3, 1:2, 1:1, 2:1, or 3:1. A higher amorphous to crystalline drug ratio can lead to quicker tissue absorption due to the higher solubility of amorphous drug. In turn, a higher crystalline to amorphous drug ratio can lead to longer residence time of the drug on tissue. […] Thus, a combination of amorphous and crystalline drug in the drug layer can provide immediate release of the active agent to begin treatment of a nose, ear, or throat condition, as well as sustained release of the active agent into the target tissue, as illustrated by the moderate in vitro release rates for drug layers subjected to solvent vapor annealing (SVA) in FIG. 4. In some variations, the drug layer is formed to include about 60% of the active agent as drug crystals. In one variation, the drug layer is formed to include mometasone furoate, where about 60% of the mometasone furoate is in crystalline form. The ratio of crystalline to amorphous drug in the drug layer can be adjusted during the drug layering process onto the expandable member, e.g., during the solvent vapor annealing process, as further described below, or during sterilization.

[2] = MF released from drug layered balloon on inflation in sheep frontal sinus ostia; assay type: in vivo
Procedure: (§1) The amount of mometasone furoate transferred to the ostia (total MF released) was measured after inflation of balloons having a drug layer including the listed dose of mometasone furoate drug crystals and poly(ethylene glycol) and polysorbate as the excipients.
Expandable members were made by spray coating 6 mm×20 mm semi-compliant balloons with a drug layer formulation. The drug layer formulation included either a 1500 μg or 3000 μg dose of mometasone furoate, poly(ethylene glycol), and a polysorbate. The drug layered balloons were then exposed in an acetone solvent vapor for 30 minutes.
(§2) In this Example, drug layered balloons were made according to Example 1 and used to dilate sheep frontal ostia.

[3] = tissue MF concentration after balloon expansion in sheep frontal sinus ostia; conditions: for concentration at 30 days / concentration at 7 days / concentration at 14 days / concentration at 1 hour: sheep; for concentration at 1 hour: Approx. 1 hour after inflation
Procedure: as §1, §2

[4] = plasma MF concentration after balloon expansions in sheep frontal sinus ostia; assay type: in vivo
[5] = tissue concentration of mometasone furoate after balloon expansion in Eustachian tubes (LCMS); assay type: in vivo, domestic sheep; conditions: sheep, Eustachian tube mucosa, 1500 μg balloon expanded to 12 atm, read-out: maximum mometasone furoate tissue concentration
Procedure: The Eustachian tubes of eight domestic sheep were accessed transnasally using balloon catheters having drug layers containing 1500 μg of mometasone furoate. The balloon catheters were made as described in Example 1. A singe balloon catheter was expanded to 12 atm of pressure to deliver the mometasone furoate crystals to Eustachian tube tissue and to dilate each contralateral Eustachian tube at its proximal opening. The animals were sacrificed at either 7 days or 30 days after balloon expansion, and mucosa from each Eustachian tube collected and frozen. Mometasone furoate concentration was then quantified using liquid chromatography mass spectrometry (LCMS).

[6] = frontal sinus ostia tissue, 3000 μg, Average Tissue MF Concentrations, Frontal Sinus Ostia, MF Dose 3000 μg, Study Arm 1, 2
[7] = nasal passage tissue, 3000 μg, Average Tissue MF Concentrations, Nasal Passage, MF Dose 3000 μg, Study Arm 1, 2

C[C@@H]1C[C@H]2[C@@H]3CCC4=CC(=O)C=C[C@]4(C)[C@@]3(Cl)[C@@H](O)C[C@]2(C)[C@@]1(OC(=O)c1ccco1)C(=O)CCl [MF, mometasone furoate]
in vitro release rate ([1]; drug layer contains the active agent only as crystals (100% crystals)): slowest
in vitro release rate ([1]; drug layer contains the active agent only in amorphous form (0% crystals)): fastest
in vitro release rates ([1]; drug layers subjected to solvent vapor annealing (SVA), amorphous and crystalline drug): moderate
Total MF Released ([2]; Dose 1500 μg, 36.4% drug crystals, crystal size 78.7 μm, PEG and polysorbate excipients): 350 µg
Total MF Released ([2]; Dose 1500 μg, 62.5% drug crystals, crystal size 128.1 μm): 478 µg
Total MF Released ([2]; Dose 3000 μg, 60.4% drug crystals, crystal size 91.1 μm): 1778 µg
Total MF Released ([2]; Dose 3000 μg, 67.4% drug crystals, crystal size 132.6 μm): 1058 µg
MF Release (% MF Dose) ([2]; MF Dose 1500 μg, 1st inflation, Study Arm 2 (treatment)): 35 % MF Dose
Average MF Release per Inflation ([2]; MF Dose 1500 μg, 1st inflation, Study Arm 2 (treatment), n=4): 524 µg
MF Release (% MF Dose) ([2]; MF Dose 1500 μg, 2nd inflation, Study Arm 1 (treatment)): 12 % MF Dose
Average MF Release per Inflation ([2]; MF Dose 1500 μg, 2nd inflation, Study Arm 1 (treatment), n=4): 176 µg
Average MF Release per Inflation ([2]; MF Dose 1500 μg, Average over first two inflations): 350 µg
Total MF Released ([2]; MF Dose 1500 μg, Table 7): 350 µg
Average % MF Release per Inflation ([2]; MF Dose 3000 μg, Study Arm 1, two expansions): 30%
Average MF Release per Inflation ([2]; MF Dose 3000 μg, Study Arm 1, two expansions, n=32 devices): 889 µg
Average % MF Release per Inflation ([2]; MF Dose 3000 μg, Study Arm 2 (bloody sheep frontal sinus ostia)): 28%
Average MF Release per Inflation ([2]; MF Dose 3000 μg, Study Arm 2 (bloody sheep frontal sinus ostia), n=4 devices): 854 µg
average tissue MF concentrations for the frontal sinus ostia relative to therapeutic levels ([3]; MF Dose 3000 μg, all time points): at or above therapeutic levels
concentration at 30 days ([3]; frontal sinus ostia tissue, 1500 μg, Average 30 day tissue MF Concentration in Sinus Ostia, 36.4% drug crystals, crystal size 78.7 μm, 30 days): 5000 ng/g
concentration at 30 days ([3]; frontal sinus ostia tissue, 1500 μg, Average 30 day tissue MF Concentration in Sinus Ostia, 62.5% drug crystals, crystal size 128.1 μm, 30 days): 1000 ng/g
concentration at 30 days ([3]; frontal sinus ostia tissue, 1500 μg, MF Concentration Frontal Sinus Ostia Tissue, MF Dose 1500 μg, explant timepoint 30 days, two expansions): 5000 ng/g
concentration at 30 days ([3]; frontal sinus ostia tissue, 1500 μg, average tissue MF concentrations for the frontal sinus ostia, MF dose 1500 μg, 30 days, compared with therapeutic level): > 100 ng/g
concentration at 30 days ([3]; frontal sinus ostia tissue, 1500 μg, mometasone furoate concentrations in tissue at 30 days, crystals sized less than 80 μm, less than 60% of the drug layer containing drug crystals): ~5000 ng/g
concentration at 30 days ([3]; frontal sinus ostia tissue, 3000 μg, Average 30 day tissue MF Concentration in Sinus Ostia, 60.4% drug crystals, crystal size 91.1 μm, 30 days): 100 ng/g
concentration at 30 days ([3]; frontal sinus ostia tissue, 3000 μg, Average 30 day tissue MF Concentration in Sinus Ostia, 67.4% drug crystals, crystal size 132.6 μm, 30 days): 2000 ng/g
concentration at 7 days [3, 6]: 9890 ng/g
concentration at 14 days [3, 6]: 1250 ng/g
concentration at 30 days ([3]; frontal sinus ostia tissue, 3000 μg, Average Tissue MF Concentrations, Frontal Sinus Ostia, MF Dose 3000 μg, Study Arm 1, 2, 30 days): 100 ng/g
concentration at 1 hour [3, 6]: 142000 ng/g
concentration at 30 days ([3]; in vivo, 30 day tissue concentrations (in sheep frontal sinus ostia)): ≥ 100 ng/g
concentration at 7 days [3, 7]: 60 ng/g
concentration at 14 days [3, 7]: 20 ng/g
concentration at 30 days ([3]; nasal passage tissue, 3000 μg, Average Tissue MF Concentrations, Nasal Passage, MF Dose 3000 μg, Study Arm 1, 2, 30 days): 1380 ng/g
concentration at 1 hour [3, 7]: 4730 ng/g
MF Concentration Plasma ([4]; MF Dose 1500 μg, 30 days, analytical range 20.0-1000.0 pg/mL): BLQ (Below Limit of Quantitation (≤20.0 pg/mL))
plasma levels ([4]; MF dose 1500 μg, 30 days post the two expansions): below the limit of quantitation
concentration at 7 days ([5]; 7 days): 47000 ng/g
concentration at 30 days ([5]; 30 days): 200 ng/g
